These are literature values, as cited in patent US9968621B2, “Parenteral compositions of celecoxib” (Dr. Reddy's Laboratories Ltd., priority 2014, dated 2018).

For this data set the following is noted: after an oral dose.

On to `Cc1ccc(-c2cc(C(F)(F)F)nn2-c2ccc(S(N)(=O)=O)cc2)cc1` [Celecoxib, 4-[5-(4-methylphenyl)-3-(trifluoromethyl)-1H-pyrazol-1-yl] benzenesulfonamide], for which the “Time of peak plasma levels” value is reported as “approximately 3 hrs”.
